Laboratory results: patent US20120040930A1, “TETRACYCLIC TERPENE SERIES COMPOUNDS, METHODS FOR PREPARING SAME, USES THEREOF AS MEDICINES AND PHARMACEUTICAL COMPOUNDS CONTAINING SAME” (priority 2005, published 2012)
Read-outs that look alike come from different tables or passages of the source.

Target: T1, acetylcholinesterase (AChE) isolated from Electrophorus electricus (Electrophorus electricus, UniProt O42275)
T1 construct: AChE isolated from Electrophorus electricus; from tissue
Assay: biochemical

[1] = AChE isolated from Electrophorus electricus, read-out: AChE IC50

T1 sequence (O42275 24-633): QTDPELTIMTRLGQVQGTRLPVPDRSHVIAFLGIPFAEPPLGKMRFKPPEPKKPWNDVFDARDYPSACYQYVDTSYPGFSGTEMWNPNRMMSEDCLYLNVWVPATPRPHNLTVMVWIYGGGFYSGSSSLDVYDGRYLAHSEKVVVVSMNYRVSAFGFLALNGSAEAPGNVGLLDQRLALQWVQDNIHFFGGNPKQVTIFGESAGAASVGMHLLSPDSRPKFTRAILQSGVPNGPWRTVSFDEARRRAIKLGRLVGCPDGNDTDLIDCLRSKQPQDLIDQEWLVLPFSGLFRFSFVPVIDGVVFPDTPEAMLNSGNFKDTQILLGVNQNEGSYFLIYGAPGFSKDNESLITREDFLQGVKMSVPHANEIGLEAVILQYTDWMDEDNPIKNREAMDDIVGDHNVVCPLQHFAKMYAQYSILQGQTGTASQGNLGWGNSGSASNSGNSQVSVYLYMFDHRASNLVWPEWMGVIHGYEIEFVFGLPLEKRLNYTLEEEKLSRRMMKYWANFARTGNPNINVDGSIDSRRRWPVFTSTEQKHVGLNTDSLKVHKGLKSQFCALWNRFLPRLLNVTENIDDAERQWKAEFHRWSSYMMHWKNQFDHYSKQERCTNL

| Molecule | IC50 [1] [µM] | other results |
| --- | --- | --- |
| CC(C)C1=N[C@H]2CCC34C[C@]35C(=O)C[C@]3(C)[C@@H]([C@H](C)N(C)C)[C@H](OC(=O)C(C)(C)C)C[C@@]3(C)[C@@H]5CC[C@H]4[C@]2(C)CO1 (stereo partly drawn) [Compound 38, (20S)-20-dimethylamino-9,19-cyclo-4β,14α-dimethyl-16α-pivalyl-(2′-isopropyl-3,29-dihydro-4H-[1,3]-oxazine)-5α,9β-pregn-11-one] | 0.181 |  |
| CC[C@H](C)C(=O)N[C@H]1CCC23C[C@]24C(=O)C[C@]2(C)[C@@H]([C@H](C)N(C)C)[C@H](OC(C)=O)C[C@@]2(C)[C@@H]4CC[C@H]3[C@]1(C)C=O (stereo partly drawn) [Compound 59, (20S)-16α-acetyl-3β-((S)-2-methylbutyrylamino)-20-dimethylamino-9,19-cyclo-4α-formyl-4β,14α-dimethyl-5α,9β-pregnan-11-one] | > 100 |  |
| CC[C@H](C)C(=O)N[C@H]1CCC23C[C@]24C(=O)C[C@]2(C)[C@@H]([C@H](C)N(C)C)[C@H](O)C[C@@]2(C)[C@@H]4CC[C@H]3[C@]1(C)CN (stereo partly drawn) [Compound 63, (20S)-20-dimethylamino-3β-((S)-2-methylbutyrylamino)-9,19-cyclo-4α-aminomethyl-4β,14α-dimethyl-5α,9β-pregnan-16α-ol-11-one] | 0.637 |  |
| CC[C@H](C)C(=O)N[C@H]1CC=C2C[C@H]3C(=O)C[C@]4(C)[C@@H]([C@H](C)N(C)C)[C@H](OC(C)=O)C[C@@]4(C)[C@@H]3CC[C@H]2[C@]1(C)C=O [Compound 66] | > 100 |  |
| CC[C@H](C)C(=O)N[C@H]1CCC23C[C@@]24[C@@H](CC[C@H]3[C@]1(C)CO)[C@]1(C)C[C@@H](O)[C@H]([C@H](C)N(C)C)[C@@]1(C)C[C@@H]4O (stereo partly drawn) [Compound 35, (20S)-20-dimethylamino-3β-((S)-2-methylbutyrylamino)-9,19-cyclo-4α-hydroxymethyl-4β,14α-dimethyl-5α,9β-pregnan-11β,16α-diol-11-one] | > 100 |  |
| CC(C)C(=O)N[C@H]1CCC23C[C@]24C(=O)C[C@]2(C)[C@@H]([C@H](C)N(C)C)[C@H](OC(=O)C(C)(C)C)C[C@@]2(C)[C@@H]4CC[C@H]3[C@]1(C)/C=N/C([Si](C)(C)C)[Si](C)(C)C (stereo partly drawn) [Compound 54, (20S)-3β-isobutyrylamino-20-dimethylamino-9,19-cyclo-4β,14α-dimethyl-4α-(bis-(trimethylsilanyl)methylimino)methyl-16α-pivalyl-5α,9β-pregnan-11-one] | > 100 |  |
| CC(C)C(=O)N[C@H]1CC[C@]23CC24C(=O)C[C@]2(C)[C@@H]([C@H](C)N(C)C)[C@H](O)C[C@@]2(C)[C@@H]4CC[C@H]3[C@]1(C)CS (stereo partly shown) [Compound 76] | 43 |  |
| CC[C@H](C)C(=O)N[C@H]1CC=C2C[C@H]3C(=O)C[C@]4(C)[C@@H]([C@H](C)N(C)C)[C@H](OC(C)=O)C[C@@]4(C)[C@@H]3CC[C@H]2[C@]1(C)CO [Compound 65] |  | IC50 (AChE IC50): 7.94 µM |
| CC(C)[C@H]1N[C@H]2CC=C3C[C@H]4C(=O)C[C@]5(C)[C@@H]([C@H](C)N(C)C)[C@H](O)C[C@@]5(C)[C@@H]4CC[C@H]3[C@]2(C)CO1 [Compound 12, (20S)-10(9->1)abeo-4,14α-dimethyl-20-dimethylamino(2′β-isopropyl-1′,2′,4′,4′-tetrahydro[3′,1′]oxazin)-5α,9-pregn-1(10)-en-16α-ol-11-one] | 0.823 |  |
| CC[C@H](C)C(=O)N[C@H]1CC=C2C[C@H]3C(=O)C[C@]4(C)[C@@H]([C@H](C)N(C)C)[C@H](O)C[C@@]4(C)[C@@H]3CC[C@H]2[C@]1(C)CN [Compound 70, (20S)-10(9->1)-abeo-20-dimethylamino-3-((S)-2-methylbutyrylamino)-4α-aminomethyl-4β,14α-dimethyl-5α,9β-pregn-1(10)-en-16α-ol-11-one] |  | IC50 (read-out: AChE IC50): 0.368 µM |
| CC(C)C(=O)N[C@H]1CCC23C[C@]24C(=O)C[C@]2(C)[C@@H]([C@H](C)N(C)C)[C@H](O)C[C@@]2(C)[C@@H]4CC[C@H]3[C@]1(C)CNC([Si](C)(C)C)[Si](C)(C)C (stereo partly drawn) [Compound 55, (20S)-3β-isobutyrylamino-20-dimethylamino-9,19-cyclo-4β,14α-dimethyl-4α-(bis-(trimethylsilanyl)methylamino)methyl-5α,9β-pregnan-16α-ol-11-one] | > 100 |  |
| C[C@@H]([C@H]1[C@H](O)C[C@@]2(C)[C@@H]3CC[C@@H]4C(=CC[C@@H]5N=C(c6ccccc6)OC[C@]54C)C[C@H]3C(=O)C[C@]12C)N(C)C [Compound 8b, (20S)-10(9->1)abeo-4,14α-dimethyl-20-dimethylamino(2′-phenyl-4′,4′-dihydro[3′,1′]oxazin)-5α,9-pregn-1(10)-en-16α-ol-11-one] |  | IC50 (read-out: AChE IC50): 7.65 µM |
| CC[C@H](C)C(=O)N[C@H]1CCC23C[C@]24C(=O)C[C@]2(C)[C@@H]([C@H](C)N(C)C)[C@H](O)C[C@@]2(C)[C@@H]4CC[C@H]3[C@]1(C)CNCc1ccccc1 (stereo partly drawn) [Compound 62, (20S)-20-dimethylamino-3β-((S)-2-methylbutyrylamino)-9,19-cyclo-4α-benzylaminomethyl-4β,14α-dimethyl-5α,9β-pregnan-16α-ol-11-one] | ≥ 100 |  |
| CC[C@H](C)C1=N[C@H]2CC=C3C[C@H]4C(=O)C[C@]5(C)[C@@H]([C@H](C)N(C)C)[C@H](O)C[C@@]5(C)[C@@H]4CC[C@H]3[C@]2(C)CN1 [Compound 71, (20S)-10(9->1)-abeo-20-dimethylamino-4β,14α-dimethyl-(2-(S)-sec-butyl-5β-methyl-1,4,5,6-tetrahydro-pyrimidin-5-yl)-5α,9β-pregnan-1(10)-en-16α-ol-11-one] |  | IC50 (read-out: AChE IC50): 0.028 µM |
| CC(C)C1=N[C@H]2CC=C3C[C@H]4C(=O)C[C@]5(C)[C@@H]([C@H](C)N(C)C)[C@H](OC(=O)C(C)(C)C)C[C@@]5(C)[C@@H]4CC[C@H]3[C@]2(C)CO1 [Compound 39, (20S)-10(9->1)abeo-20-dimethylamino-4β,14α-dimethyl-16α-pivalyl-(2′-isopropyl-3,29-dihydro-4H-[1,3]-oxazine)-5α,9β-pregn-1(10)-en-11-one] |  | IC50 (AChE IC50): 0.198 µM |
| C[C@@H]([C@H]1[C@H](O)C[C@@]2(C)[C@@H]3CC[C@@H]4C5(CC[C@H](NC(=O)Cc6ccccc6)[C@@]4(C)CO)C[C@@]35C(=O)C[C@]12C)N(C)C (stereo partly drawn) [Compound 6g, (20S)-9,19-cyclo-4α-hydroxymethyl-4,14α-dimethyl-20-dimethylamino-3 (phenylacetylamino)-5α,9-pregnan-16α-ol-11-one] | > 5 |  |
| CC(C)C(=O)N[C@H]1CCC23C[C@]24C(=O)C[C@]2(C)[C@@H]([C@H](C)N(C)C)[C@H](O)C[C@@]2(C)[C@@H]4CC[C@H]3[C@]1(C)/C=N/Cc1ccccc1 (stereo partly drawn) [Compound 45, (20S)-20-dimethylamino-3β-(isobutyrylamino)-9,19-cyclo-4α-benzyliminomethyl-4β,14α-dimethyl-5α,9β-pregnan-16α-ol-11-one] | > 100 |  |
| CC(=O)OC[C@]1(C)[C@@H](NC(=O)C(C)C)CCC23C[C@]24C(=O)C[C@]2(C)[C@@H]([C@H](C)N(C)C)[C@H](OC(C)=O)C[C@@]2(C)[C@@H]4CC[C@H]31 (stereo partly drawn) [Compound 42, (20S)-16α-acetyl-3β-isobutyrylamino-20-dimethylamino-9,19-cyclo-4β,14α-dimethyl-4α-acetylmethyl-5α,9β-pregnan-11-one] | > 100 |  |
| CC(C)C(=O)N[C@H]1CCC23C[C@]24C(=O)C[C@]2(C)[C@@H]([C@H](C)N(C)C)[C@H](O[Si](C)(C)C(C)(C)C)C[C@@]2(C)[C@@H]4CC[C@H]3[C@]1(C)CNC([Si](C)(C)C)[Si](C)(C)C (stereo partly drawn) [Compound 57, (20S)-3β-isobutyrylamino-20-dimethylamino-9,19-cyclo-4β,14α-dimethyl-4α-(bis-(trimethylsilanyl)methylamino)methyl-16α-(tert-butyl-dimethyl-silanyloxy)-5α,9β-pregnan-11-one] | > 100 |  |
| CC[C@H](C)C(=O)N[C@H]1CC=C2C[C@H]3C(=O)C[C@]4(C)[C@@H]([C@H](C)N(C)C)[C@H](O)C[C@@]4(C)[C@@H]3CC[C@H]2[C@]1(C)/C=N/Cc1ccccc1 [Compound 68, (20S)-10(9->1)-abeo-20-dimethylamino-3-((S)-2-methylbutyrylamino)-4α-benzyliminomethyl-4β,14α-dimethyl-5α,9β-pregn-1(10)-en-16α-ol-11-one] |  | IC50 (read-out: AChE IC50): 0.78 µM |
| (20S)-3β-isobutyrylamino-20-methylamino-9,19-cyclo-4α-benzylaminomethyl-4β,14α-dimethyl-16α-pivalyl-5α,9β-pregnan-11-one [Compound 48] | 17.5 |  |
| CC[C@H](C)C(=O)N[C@H]1CC=C2C[C@H]3C(=O)C[C@]4(C)[C@@H]([C@H](C)N(C)C)[C@H](O)C[C@@]4(C)[C@@H]3CC[C@H]2[C@]1(C)CNCc1ccccc1 [Compound 69, (20S)-10(9->1)abeo-20-dimethylamino-3β-((S)-2-methylbutyrylamino)-4α-benzylaminomethyl-4β,14α-dimethyl-5α,9β-pregn-1(10)-en-16α-ol-11-one] | > 100 |  |
| CC(C)C(=O)N[C@H]1CCC23C[C@]24C(=O)C[C@]2(C)[C@@H]([C@H](C)N(C)C)[C@H](O)C[C@@]2(C)[C@@H]4CC[C@H]3[C@]1(C)CNCc1ccccc1 (stereo partly drawn) [Compound 46, (20S)-20-dimethylamino-3β-(isobutyrylamino)-9,19-cyclo-4α-benzylaminomethyl-4β,14α-dimethyl-5α,9β-pregnan-16α-ol-11-one] | 33.9 |  |
| Cc1ccc(S(=O)(=O)O[C@@H]2C[C@@]3(C)[C@@H]4CC[C@@H]5C6(CC[C@H](NC(=O)C(C)C)[C@@]5(C)CO)C[C@@]46C(=O)C[C@]3(C)[C@H]2[C@H](C)N(C)C)cc1 (stereo partly drawn) [Compound 36, (20S)-3β-isobutyrylamino-20-dimethylamino-9,19-cyclo-4β,14α-dimethyl-4α-hydroxymethyl-16α-tosyl-5α,9β-pregnan-11-one] | > 100 |  |
| CC1=N[C@H]2CC=C3C[C@H]4C(=O)C[C@]5(C)[C@@H]([C@H](C)N(C)C)[C@H](O)C[C@@]5(C)[C@@H]4CC[C@H]3[C@]2(C)CO1 [Compound 8a, (20S)-10(9->1)abeo-4,14α-dimethyl-20-dimethylamino(2′-methyl-4′,4′-dihydro[3′,1′]oxazin)-5α,9-pregn-1(10)-en-16α-ol-11-one] | 0.676 |  |
